In US9469645B2, “Compounds and compositions for the treatment of parasitic diseases” (Novartis AG, priority 2009, dated 2016):

What was measured:
W2 strain = assay: parasite proliferation assay in infected red blood cells (SYBR Green I), W2 strain; format: cell-based, Plasmodium falciparum; settings: Plasmodium falciparum, Erythrocyte
Excerpt: Compounds of the invention can be assayed to measure their capacity to inhibit proliferation of parasitemia in infected red blood cells. The proliferation is quantified by the addition of SYBR Green I (INVITROGEN)® dye which has a high affinity for double stranded DNA.

3D7 P. falciparum strain = assay: parasite proliferation assay in infected red blood cells (SYBR Green I); format: cell-based, Plasmodium falciparum; settings: Plasmodium falciparum, 3D7, Erythrocyte, 3D7 strain; read-out: EC50 3D7 strain
Summary of the method: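 P. falciparum 3D7 grown in O+ human erythrocytes to 3–8% parasitemia and exposed to compounds. Proliferation read as the increase in parasite DNA. Detection used SYBR Green I in saponin/triton-X/EDTA lysis buffer, with overnight lysis at room temperature.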

Structure (SMILES)	EC50 (W2 strain) [nM]	EC50 (3D7 P. falciparum strain) [nM]
O=C([C@@H]1CCN1)N1CCn2c(nc(-c3ccc(F)cc3)c2Nc2ccc(F)cc2)C1 [Compound 477]	55	70
CC(C)(C)[C@H](N)C(=O)N1CCn2c(nc(-c3ccc(F)cc3)c2Nc2ccc(F)cc2)C1 [Compound 478]	39	60
Cc1ccc(Nc2c(-c3ccc(F)cc3)nc3n2CCN(C(=O)[C@@H](N)CC2CCC2)C3)cc1 [Compound 479]	12	20
Cc1ccc(Nc2c(-c3ccc(F)cc3)nc3n2CCN(C(=O)[C@@H](N)CC(C)C)C3)cc1 [Compound 480]	22	30
CC[C@H](C)[C@H](N)C(=O)N1CCn2c(nc(-c3ccc(F)cc3)c2Nc2ccc(C)cc2)C1 [Compound 481]	14	20
Cc1ccc(Nc2c(-c3ccc(F)cc3)nc3n2CCN(C(=O)[C@@H](N)c2ccc(F)cc2)C3)cc1 [Compound 482]	9	20
Cc1ccc(Nc2c(-c3ccc(F)cc3)nc3n2CCN(C(=O)[C@@H](N)Cc2ccc(F)cc2)C3)cc1 [Compound 483]	25	50
Cc1ccc(C[C@H](N)C(=O)N2CCn3c(nc(-c4ccc(F)cc4)c3Nc3ccc(C)cc3)C2)cc1 [Compound 484]	23	40
Cc1ccc(Nc2c(-c3ccc(F)cc3)nc3n2CCN(C(=O)[C@@H](N)Cc2ccc(F)c(F)c2)C3)cc1 [Compound 485]	23	30
Cc1ccc(Nc2c(-c3ccc(F)cc3)nc3n2CCN(C(=O)[C@@H](N)Cc2cscn2)C3)cc1 [Compound 486]	16	30
N[C@H](C(=O)N1CCn2c(nc(-c3ccc(F)cc3)c2Nc2ccc(Cl)c(F)c2)C1)C1CC1 [Compound 487]	31	40
N[C@@H](CC1CC1)C(=O)N1CCn2c(nc(-c3ccc(F)cc3)c2Nc2ccc(Cl)c(F)c2)C1 [Compound 488]	13	20
CC(C)[C@H](O)C(=O)N1CCn2c(nc(-c3ccc(F)cc3)c2Nc2ccc(Cl)c(F)c2)C1 [Compound 489]	9	10
N[C@H](C(=O)N1CCn2c(nc(-c3ccc(F)cc3)c2Nc2ccc(Cl)c(F)c2)C1)c1ccc(F)cc1 [Compound 490]	33	50
CC1(C)NCCn2c1nc(-c1ccc(F)cc1)c2Nc1ccc(F)cc1 [Compound 493]	5	4
Cc1ccc(Nc2c(-c3ccc(F)c(C)c3)nc3n2CCNC3)cc1 [Compound 494]	2140	2820
Cc1cc(Nc2c(-c3ccc(F)cc3)nc3n2CCN(C(=O)CN)C3(C)C)ccc1F [Compound 495]	39	90
Cc1cc(Nc2c(-c3ccc(F)cc3)nc3n2CCN(C(=O)CN)C3(C)C)ccc1Cl [Compound 496]	8	30
Cc1ccc(Nc2c(-c3ccc(F)c(Cl)c3)nc3n2CCNC3)cc1 [Compound 497]	5820	8000
Cc1ccc(Nc2c(-c3ccc(Cl)c(F)c3)nc3n2CCNC3)cc1 [Compound 498]	6740	6340
Cc1cccc(Nc2c(-c3ccc(F)cc3)nc3n2CCN(C(=O)CN)C3(C)C)c1 [Compound 499]	6	10
CC1(C)NC(=O)Cn2c1nc(-c1ccc(F)cc1)c2Nc1cccc(C(F)(F)F)c1 [Compound 500]	1100	1560
CC1(C)NC(=O)Cn2c1nc(-c1ccc(F)cc1)c2Nc1cccc(F)c1 [Compound 501]	305	400
Cc1ccc(Nc2c(-c3ccc(F)cc3)nc3n2CCN(C(=O)[C@@](C)(N)Cc2ccc(F)cc2)C3)cc1 [Compound 502]	1370	1390

Structure (SMILES)	EC50 (W2 strain) [nM]	EC50 (3D7 P. falciparum strain) [nM]
Cc1ccc(Nc2c(-c3ccc(F)cc3)nc3n2CCN(C(=O)C(C)(N)CC(C)C)C3)cc1 (stereo not drawn) [Compound 503]	95	120
Cc1ccc(Nc2c(-c3ccc(F)cc3)nc3n2CCN(C(=O)[C@@](C)(N)CO)C3)cc1 [Compound 504]	93	90
Cc1ccc(Nc2c(-c3ccc(F)cc3)nc3n2CCN(C(=O)C(C)(N)CO)C3)cc1 (stereo not drawn) [Compound 505]	116	140
CC1(C)NC(=O)Cn2c1nc(-c1ccc(F)cc1)c2Nc1ccc(Cl)c(Cl)c1 [Compound 506]	198	190
Cc1ccc(Nc2c(-c3ccc(F)cc3)nc3n2CC(=O)NC3(C)C)cc1 [Compound 507]	136	140
CC1(C)NC(=O)Cn2c1nc(-c1ccc(F)cc1)c2Nc1ccc(Cl)cc1 [Compound 508]	126	130
CC1(C)NC(=O)Cn2c1nc(-c1ccc(F)cc1)c2Nc1ccc(F)c(F)c1 [Compound 509]	134	130
CC1(C)NC(=O)Cn2c1nc(-c1ccc(F)cc1)c2Nc1ccc(Cl)c(F)c1 [Compound 511]	65	40
CC1(C)NC(=O)Cn2c1nc(-c1ccc(F)cc1)c2Nc1ccc(F)cc1 [Compound 512]	165	190
CC1(C)NC(=O)Cn2c1nc(-c1ccc(F)cc1)c2Nc1ccc(F)c(Cl)c1 [Compound 513]	195	170
CC1(C)NCCn2c1nc(-c1ccc(F)cc1)c2Nc1cccc(F)c1 [Compound 514]	24	30
CC1(C)NCCn2c1nc(-c1ccc(F)cc1)c2Nc1cccc(C(F)(F)F)c1 [Compound 515]	34	40
CC1(C)c2nc(-c3ccc(F)cc3)c(Nc3cccc(F)c3)n2CCN1C(=O)C(F)(F)F [Compound 516]	26	30
Cc1ccc(Nc2c(-c3ccc(F)c(C)c3)nc3n2CCN(C(=O)CN)C3)cc1 [Compound 517]	51	50
Cc1ccc(Nc2c(-c3ccc(F)c(C)c3)nc3n2CCN(C(=O)C(C)(C)N)C3)cc1 [Compound 518]	2890	4980
Cc1ccc(Nc2c(-c3ccc(F)c(Cl)c3)nc3n2CCN(C(=O)CN)C3)cc1 [Compound 519]	590	840
Cc1ccc(Nc2c(-c3ccc(Cl)c(F)c3)nc3n2CCN(C(=O)CN)C3)cc1 [Compound 520]	158	160
Cc1ccc(Nc2c(-c3ccc(Cl)c(F)c3)nc3n2CCN(C(=O)C(C)(C)N)C3)cc1 [Compound 521]	3030	5000
CC1(C)c2nc(-c3ccc(F)cc3)c(Nc3ccc(F)c(C#N)c3)n2CCN1C(=O)CN [Compound 522]	2	1.7
CC1(C)NCCn2c1nc(-c1ccc(F)cc1)c2Nc1ccc(F)c(C(=O)O)c1 [Compound 523]	11600	13100
CC1(C)NCCn2c1nc(-c1ccc(F)cc1)c2Nc1ccc(F)c(C#N)c1 [Compound 524]	57	40
Cc1ccc(Nc2c(-c3ccc(F)cc3)nc3n2CCN(C(=O)CN)C3(C)C)cc1C#N [Compound 525]	13	10
Cc1ccc(Nc2c(-c3ccc(F)cc3)nc3n2CCNC3(C)C)cc1C(=O)O [Compound 526]	974	1120
Cc1ccc(Nc2c(-c3ccc(F)cc3)nc3n2CCNC3(C)C)cc1C#N [Compound 527]	6	4
